Measured values from US20100267616A1, “ACUTE R[…]” (ImmuneRegen Biosciences, Inc., priority 2003, published 2010).

System: diesel fuel smoke lung injury (model of ARDS and SARS)
Parameters: species or system rats and rabbits
Conditions: in vivo, iv

Sar^9, Met (02) 11-Substance P
6-keto-PGF1α: decreased
PGE2: decreased
clara cell necrosis: attenuated
damage to the alveolar-capillary barrier membrane: attenuates
pulmonary alveolar macrophage number: reduced
